The text below walks through data of patent US20090176711A1, “INHIBITORS OF AMYLOID PRECURSOR PROTEIN PROCESSING” (priority 2008, published 2009).

The subject of assay [1] is Substrate M (Sub M, SEVNLDAEFR; β-secretase cleavage site of APPsw). Description: Binding of biotin-labeled Substrate M to immobilized complementary (HC) peptides. Conditions: substrate not specified.
The target of assay [2] is T1, cleavage of Sub-ST6Ga11 by rhBACE1 (Rattus norvegicus, UniProt P13721).
T1 construct: 19 amino acid region (DYEALTL/QAKEFQMPKSQE) that contains the β-cleavage site for investigation was chosen; purchased A&Pep Co., Inc. (non-labelled peptides); R&D Systems (rhBACE1)
Nature of the assay: HPLC analysis of the cleavage of Sub-ST6Ga11 by rhBACE1. The class given is biochemical, human. The note with it: up to 10 inhibitor/substrate ratio, Sub-ST6Ga11 50 μM, 500 nM enzyme. An excerpt: One of the advantages of the APP inhibitor described in the present invention is that it is a peptide or a mimetic that bind to the β-secretase cleavage site of APP, thus not affecting other β-secretase substrates. To confirm the specificity of the inventive APP inhibitor, two different types of substrates were used, APP Sub M and ST6Ga11. Both substrates are cleaved by β-secretase under normal conditions and the effect of the inventive APP inhibitor on the substrate cleavage was monitored by HPLC (See the schematic diagram in FIG. 16.) To carry out these experiments, the concentration of β-secretase required for cleavage of both substrates was determined as shown in FIG. 17. For substantial cleavage of ST6Ga11 substrate, 420 nM of the enzyme was required. Therefore, 420 nM of β-secretase was used for the following experiment.
Various concentrations of HC peptide were preincubated with either Sub M (50 μM) or Sub-ST6Ga11 (50 μM, DYEALTLQAKEFQMPKSQE) peptide corresponding to the β-cleavage site of ST6Ga11 for 2 h at RT. The mixtures containing Sub M was treated with 50 nM of rhBACE1 and that containing Sub-ST6Ga11 was treated with 500 nM enzyme for 12 h at RT. Roughly 50% of each BACE1 substrate was cleaved in the absence of HC peptide. The cleavage products were separated on a C18 reversed-phase HPLC column as described above.

Assay [3] deals with cleavage of Substrate M by β-secretase. Description: Inhibition of cleavage of Substrate M by β-secretase by complementary and deletion peptides (Examples 1, 5, 6; assay format not stated). The note with it: various concentrations, Substrate M (FIG. 8). The class given is biochemical. As to the method:
So far we have focused on c-Sub M peptide. Serial deletions were made from N-terminus or C-terminus of c-Sub M (FIG. 5), and we investigated effect of the deletions on the cleavage of Substrate M. The optimum peptide/substrate ratio for inhibition on the cleavage of substrate was determined by observing the inhibition percentage at various peptide/substrate ratios (FIG. 4). Subsequently, the inhibitory activity of the deletion peptides were tested at 10 inhibitor/substrate ratio and the concentration of the Substrate M was 50 μM. Deletion of the first two amino acids from the N-terminus had little effect on the activity and deletion of five amino acids from the C-terminus of c-Sub M had little effect on the inhibitory activity (FIG. 6). Further deleted peptides were tested for inhibitory activity on the cleavage of Substrate M (FIG. 7).
The above-mentioned peptides that have inhibitory activity were tested at various concentrations for their inhibitory activities on their mutant substrate Substrate M (FIG. 8).

For assay [4], the system named is APP processing in HEK293-APP cells. Description: APP inhibitor activity on HEK293-APP cells (βCTF Western blot). The class given is cell-based, human. Conditions: γ-secretase inhibitor and cholesterol added. As for the experimental part: In the neuronal cells of the brain, APP is processed by α-secretase or β-secretase. To investigate the effects of the inhibitors on the cell, a cell based assay system was developed as described in FIG. 10. C-terminal fragment of APP remaining on the cell membrane was detected by Western blot. The resulting C-terminal fragments, αCTF or βCTF are further processed by γ-secretase. However, if the cells are treated with the γ-secretase inhibitor, this processing is blocked. As a result, αCTF or βCTF accumulate in the cell. If β-secretase inhibitor or APP inhibitor is added, this processing is blocked and βCTF disappears.
In addition, γ-secretase inhibitor and cholesterol were added to the cells to increase βCTF level. Commercially available peptide-based β-secretase inhibitor was included as control (Lane 6, FIG. 11). To detect the N-terminal fragment of β-amyloid which is a product of APP processing, 6E10 antibody was employed. […] Recently, it has been reported that the commercially available peptide-based inhibitor had to be linked to an oligoarginine transporter peptide to have inhibitory activity against cells. Therefore, mimetic approach is adopted to produce cell permeable analogs. (Chang et al. J. Neurochemistry 2004; 89:1409-1416).
After confirming the ability of the oligo-arginine coupled APP inhibitors to enter the cells, the inhibitors were applied to HEK293-APP cells overexpressing APP to test their inhibitory activities on APP processing. […] This inhibitor started to show significant inhibitory activity beginning from 0.1 μM (lower panel).
Background: A western blot detects proteins with antibodies after separation by electrophoresis.

Assay [5] has as its target T2, Sub-ST6Ga11 (DYEALTLQAKEFQMPKSQE) (Rattus norvegicus, UniProt P13721).
T2 construct: 19 amino acid region (DYEALTL/QAKEFQMPKSQE) that contains the β-cleavage site for investigation was chosen; purchased Peptron, Inc; host or cells: chemical synthesis
Nature of the assay: Binding of bio-Sub-ST6Ga11 to immobilized HC peptide. The note with it: HC peptide chemically coupled on microtiter plate. As for the experimental part:
Reacti-Bind™ maleic anhydride-activated polystyrene plate (Pierce, IL, USA) was coated with 50 μl of HC peptide (200 μM in distilled water) by chemical coupling for 3 h at room temperature (RT) and washed three times with phosphate buffered saline (PBS) containing 0.05% tween 20 (PBST). The plate was blocked with blocking buffer (0.5% gelatin in PBS) for 1 h at RT. After discarding blocking buffer, biotinylated BACE1 substrates (200 μM) in blocking buffer was applied on the plate and incubated for 2.5 h at RT. Each well was washed three times with PBST. The bound biotinylated BACE1 substrates were detected by incubation with streptavidin-horseradish peroxidase (Str-HRP, 125 mU/ml in blocking buffer) for 2 h at RT. Color reaction was carried out with 50 μl of 3,3′,5,5′-Tetramethylbenzidine Liquid Substrate (Sigma-Aldrich, MO, USA). After stopping the reaction by addition of an equal volume of 1 N HCl, absorbance at 450 nm was read in an automated ELISA reader (EL 312e, Bio-Tek Instruments, VT, USA). All assays were carried out in duplicate.
It was investigated if HC peptide would show specificity for APP in terms of the inhibition of cleavage by BACE1. ST6Ga11 is also cleaved by BACE1. For this experiment, 19 amino acid region (DYEALTL/QAKEFQMPKSQE) that contains the β-cleavage site for investigation was chosen. The 19 amino acid peptide was designated as Sub-ST6Ga11. […]

Consider EFCIQIHF [c-Sub M ΔN1C1], for which the “absorbance in binding test” value in assay [1] is given as “high absorbance”. Besides, the “inhibition of cleavage of Sub-ST6Ga11 by rhBACE1” value in assay [2] is recorded as “about 10%”. Moreover, the “concentration dependent inhibitory activity, activity group” value in assay [3] is “most active group”. Moreover, in assay [4], the “inhibitory activity on APP processing (βCTF)” value was “none of the inhibitors tested showed inhibitory activity”. The “binding of bio-Sub-ST6Ga11” value in assay [5] is reported as “also bound”.
